Data on twelve compounds can be found in patent US8541410B2, “Sulfur substituted sulfonylaminocarboxylic acid N-arylamides, their preparation, their use and pharmaceutical preparations comprising them” (Sanofi-aventis Deutschland GmbH, priority 1998, dated 2013).

This test has as its target T1, soluble guanylate cyclase (sGC) (Bos taurus, UniProt P16068).
T1 construct: The sGC which was employed had been isolated from bovine lung; from tissue; host or cells: bovine lung
T1 sequence (P16068 1-619): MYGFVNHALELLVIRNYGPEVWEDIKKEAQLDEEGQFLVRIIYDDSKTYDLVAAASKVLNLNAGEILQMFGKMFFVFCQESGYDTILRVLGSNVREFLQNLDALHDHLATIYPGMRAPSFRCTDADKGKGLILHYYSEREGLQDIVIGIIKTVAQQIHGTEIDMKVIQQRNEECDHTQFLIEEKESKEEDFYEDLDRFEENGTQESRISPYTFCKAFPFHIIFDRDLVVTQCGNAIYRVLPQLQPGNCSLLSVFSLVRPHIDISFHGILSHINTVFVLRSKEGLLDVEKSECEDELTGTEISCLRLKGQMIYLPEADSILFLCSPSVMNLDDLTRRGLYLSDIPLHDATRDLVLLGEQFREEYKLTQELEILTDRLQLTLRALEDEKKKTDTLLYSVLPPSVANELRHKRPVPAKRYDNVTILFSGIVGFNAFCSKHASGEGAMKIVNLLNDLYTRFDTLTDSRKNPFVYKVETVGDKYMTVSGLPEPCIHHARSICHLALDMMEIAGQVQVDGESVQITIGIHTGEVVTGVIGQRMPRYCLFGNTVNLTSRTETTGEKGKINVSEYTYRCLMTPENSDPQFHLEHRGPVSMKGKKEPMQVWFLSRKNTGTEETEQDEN
T1 sequence (P19687 1-691 partner): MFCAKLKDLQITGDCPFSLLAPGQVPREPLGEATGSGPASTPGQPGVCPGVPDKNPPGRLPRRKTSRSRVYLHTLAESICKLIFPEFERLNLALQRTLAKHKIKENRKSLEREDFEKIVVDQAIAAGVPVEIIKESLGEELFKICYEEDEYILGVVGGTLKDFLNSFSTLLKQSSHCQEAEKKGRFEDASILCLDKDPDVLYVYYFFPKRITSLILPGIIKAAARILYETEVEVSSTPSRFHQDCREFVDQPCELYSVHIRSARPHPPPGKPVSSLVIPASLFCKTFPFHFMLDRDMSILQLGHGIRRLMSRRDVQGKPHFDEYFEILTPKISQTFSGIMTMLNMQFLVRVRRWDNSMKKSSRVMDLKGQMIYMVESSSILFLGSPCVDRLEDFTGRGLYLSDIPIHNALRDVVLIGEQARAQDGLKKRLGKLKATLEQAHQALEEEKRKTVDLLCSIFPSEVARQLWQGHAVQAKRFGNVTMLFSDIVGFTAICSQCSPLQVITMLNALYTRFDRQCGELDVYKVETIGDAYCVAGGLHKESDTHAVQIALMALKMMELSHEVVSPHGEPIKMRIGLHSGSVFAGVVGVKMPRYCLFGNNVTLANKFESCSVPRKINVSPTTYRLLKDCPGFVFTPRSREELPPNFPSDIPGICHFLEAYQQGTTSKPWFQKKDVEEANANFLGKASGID
The experiment in a line: Activation of the soluble guanylate cyclase (cGMP enzyme immunoassay). Format: biochemical, bovine. The conditions noted are these: n-fold stimulation of basal enzyme activity. As for the experimental part: The activation of the soluble guanylate cyclase (sGC) which catalyzes the conversion of guanosine triphosphate (GTP) into cyclic guanosine monophosphate (cGMP) and pyrophosphate, by the compounds according to the invention was quantified with the aid of an enzyme immunoassay (EIA) from Amersham. For this purpose the substances to be tested were initially incubated with sGC in microtiter plates, and the amount of the cGMP formed was then determined.
The sGC which was employed had been isolated from bovine lung (see Methods in Enzymology, Volume 195, p. 377). The test solutions (100 μl per well) contained 50 mM triethanolamine (TEA) buffer (pH 7.5), 3 mM MgCl2, 3 mM reduced glutathione (GSH), 0.1 mM GTP, 1 mM 3-isobutyl-1-methylxanthine (IBMX), suitably diluted enzyme solution and the substance to be tested or, in the control experiments, the solvent. The substances to be tested were dissolved in dimethyl sulfoxide (DMSO) and the solution was diluted with DMSO/water, so that the final concentration (c) of the substance to be tested in the test solution had the value indicated in the table. The DMSO concentration in the test solution was 5% (v/v). The reaction was initiated by addition of the sGC. The reaction mixture was incubated at 37° C. for 15 to 20 minutes and then stopped by ice-cooling and addition of the stop reagent (50 mM EDTA, pH 8.0). An aliquot of 50 μl was taken and used for determining the cGMP content using the acetylation protocol of the Amersham cGMP-EIA kit. The absorption of the samples was measured at 450 nm (reference wavelength 620 nm) in a microtiter plate reader. The cGMP concentration was determined using a standard curve which was obtained under the same test conditions. The activation of sGC by a test substance is given as the n-fold stimulation of the basal enzyme activity which was found in the control experiments (using solvent instead of test substance) (calculated using the formula n-fold stimulation=[cGMP]test substance/[cGMP]control).

For the setting “concentration c 50 μM”, `O=C(Nc1ccc(S(=O)(=O)N2CCSCC2)cc1)c1cc(Cl)ccc1NS(=O)(=O)c1ccc(Cl)c(Cl)c1` [Example 70, 5-Chloro-2-(3,4-dichloro-phenylsulfonylamino)-N-(4-(thiomorpholine-4-sulfonyl)-phenyl)-benzamide] showed a n-fold stimulation of 25.1.
Same read-out and setting: the value for `O=C(Nc1ccc(S(=O)(=O)N2CCOCC2)cc1)c1cc(Cl)ccc1NS(=O)(=O)c1cc(Br)c(Br)s1` [Example 145, 5-Chloro-2-(4,5-dibromo-thiophene-2-sulfonylamino)-N-(4-(morpholine-4-sulfonyl)-phenyl)-benzamide] was 8.
The same measure, in the same setting: for `O=C(Nc1ccc(S(=O)(=O)N2CCOCC2)cc1)c1cc(Cl)ccc1NS(=O)(=O)c1cccs1` [Example 136, 5-Chloro-N-(4-(morpholine-4-sulfonyl)-phenyl)-2-(thiophene-2-sulfonylamino)-benzamide] the value was 24.2.
The compound `C[C@@H]1CN(S(=O)(=O)c2ccc(NC(=O)c3ccc(Cl)cc3NS(=O)(=O)c3ccc(Cl)cc3)cc2)C[C@H](C)O1` [Example 226, 4-Chloro-2-(4-chloro-phenylsulfonylamino)-N-(4-(cis-2,6-dimethyl-morpholine-4-sulfonyl)-phenyl)-benzamide] returned a n-fold stimulation (concentration c 25 μM) of 3.3.
Take `Cc1ccc(NS(=O)(=O)c2ccc(Cl)cc2)c(C(=O)Nc2ccc(S(=O)(=O)N3CCSCC3)cc2)c1` [Example 86, 2-(4-Chloro-phenylsulionylamino)-5-methyl-N-(4-(thiomorpholine-4-sulfonyl)-phenyl)-benzamide]: the n-fold stimulation (concentration c 50 μM) is given as 32.9.
Same read-out and setting: for `Cc1nn(C)c(Cl)c1S(=O)(=O)Nc1ccc(Cl)cc1C(=O)Nc1ccc(S(=O)(=O)N2CCOCC2)cc1` [Example 130, 5-Chloro-2-(5-chloro-1,3-dimethyl-pyrazole-4-sulfonyl-amino)-N-(4-(morpholine-4-sulfonyl)-phenyl)-benzamide] the value was 35.3.
In the case of `Cc1noc(C)c1S(=O)(=O)Nc1ccc(Cl)cc1C(=O)Nc1ccc(S(=O)(=O)N(C)Cc2cccnc2)cc1` [Example 209, 5-Chloro-2-(3,5-dimethyl-isoxazde-4-sulfonylamino)-N-(4-(N-methyl-N-(pyridin-3-yl-methyl)-aminosulfonyl)-phenyl)-benzamide], the n-fold stimulation (concentration c 10 μM) was 28.5.
In turn, `Cc1cc(NC(=O)c2cc(Cl)ccc2NS(=O)(=O)c2ccc(Cl)cc2)ccc1S(=O)(=O)N1CC(C)CC(C)C1` (stereo not drawn) [Example 194, 5-Chloro-2-(4-chloro-phenylsulfonylamino)-N-(4-(3,5-dimethyl-piperidine-1-sulfonyl)-3-methyl-phenyl)-benzamide] displayed a n-fold stimulation (concentration c 5 μM) of 20.0.
Where the note is “concentration c 50 μM”, `Cc1nn(C)c(Cl)c1S(=O)(=O)Nc1ccc(Cl)cc1C(=O)Nc1ccc(S(=O)(=O)N2CCSCC2)cc1` [Example 124, 5-Chloro-2-(5-chloro-1,3-dimethyl-1H-pyrazole-4-sulfonyl-amino)-N-(4-(thiomorpholine-4-sulfonyl)-phenyl)-benzamide] registered a n-fold stimulation of 31.2.
On the same count and under the same terms, the value for `CC1CN(S(=O)(=O)c2ccc(NC(=O)c3cc(Cl)ccc3NS(=O)(=O)c3ccc(Cl)cc3)cc2)CC(C)O1` (stereo not drawn) [Example 65, 5-Chloro-2-(4-chloro-phenylsulfonylamino)-N-(4-(2,6-dimethyl-morpholine-4-sulfonyl)-phenyl)-benzamide] was 24.6.
For the setting “concentration c 10 μM”, `Cc1noc(C)c1S(=O)(=O)Nc1ccc(Cl)cc1C(=O)Nc1ccc(S(=O)(=O)N2C[C@@H](C)O[C@@H](C)C2)cc1` [Example 222, 5-Chloro-2-(3,5-dimethyl-isoxazole-4-sulfonylamino)-N-(4-(cis-2,6-dimethyl-morpholine-4-sulfonyl)-phenyl)-benzamide] registered a n-fold stimulation of 29.5.
Take `O=C(Nc1ccc(S(=O)(=O)N2CCOCC2)cc1)c1cc(Cl)ccc1NS(=O)(=O)CC(F)(F)F` [Example 155, 5-Chloro-N-(4-(morpholine-4-sulfonyl)-phenyl)-2-(2,2,2-trifluoro-ethylsulfonylamino)-benzamide]: the n-fold stimulation (concentration c 50 μM) stood at 7.8.
